According to ChEMBL document CHEMBL5291721, “A preclinical secondary pharmacology resource illuminates target-adverse drug reaction associations of marketed drugs” (Nat Commun, 2023):

Tests used:
Mu-type opioid receptor [1] = target: T1, Mu-type opioid receptor (Homo sapiens, UniProt P35372)
[2] = target: Delta-type opioid receptor (Homo sapiens, UniProt P41143)
[3] = target: Glutamate receptor ionotropic, NMDA 1 (Rattus norvegicus, UniProt P35439)
[4] = target: T2, Alpha-1A adrenergic receptor (Homo sapiens, UniProt P35348); format: functional, cell-based
T2 sequence (P35348 whole entry): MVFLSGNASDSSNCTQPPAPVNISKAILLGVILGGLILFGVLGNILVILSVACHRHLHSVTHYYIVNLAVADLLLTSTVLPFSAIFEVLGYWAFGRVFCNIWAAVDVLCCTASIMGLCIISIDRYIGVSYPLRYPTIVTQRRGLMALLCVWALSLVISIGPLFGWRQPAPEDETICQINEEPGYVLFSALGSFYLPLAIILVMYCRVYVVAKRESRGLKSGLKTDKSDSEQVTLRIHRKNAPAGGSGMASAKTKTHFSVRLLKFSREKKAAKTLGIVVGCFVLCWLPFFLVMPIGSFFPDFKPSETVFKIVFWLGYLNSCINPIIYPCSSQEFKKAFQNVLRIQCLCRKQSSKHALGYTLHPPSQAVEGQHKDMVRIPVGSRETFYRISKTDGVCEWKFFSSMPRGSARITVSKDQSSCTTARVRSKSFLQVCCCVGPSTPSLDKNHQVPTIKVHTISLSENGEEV

[5] = target: T3, Cholecystokinin receptor type A (Homo sapiens, UniProt P32238)
T3 sequence (P32238 whole entry): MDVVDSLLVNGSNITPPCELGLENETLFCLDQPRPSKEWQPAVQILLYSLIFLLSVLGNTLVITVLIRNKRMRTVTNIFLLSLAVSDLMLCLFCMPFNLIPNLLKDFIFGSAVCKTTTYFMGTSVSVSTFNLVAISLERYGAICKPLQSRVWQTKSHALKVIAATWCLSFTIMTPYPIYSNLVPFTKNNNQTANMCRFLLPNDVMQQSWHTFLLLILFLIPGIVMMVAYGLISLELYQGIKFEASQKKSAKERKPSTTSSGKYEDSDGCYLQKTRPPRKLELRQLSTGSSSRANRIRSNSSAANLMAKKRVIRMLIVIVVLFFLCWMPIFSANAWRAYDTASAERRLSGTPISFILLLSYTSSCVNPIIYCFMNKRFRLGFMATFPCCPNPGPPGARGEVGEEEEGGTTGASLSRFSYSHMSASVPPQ

Mu-type opioid receptor [6] = target: T1, Mu-type opioid receptor; experiment: biochemical; format: functional
[7] = target: T4, Sodium-dependent noradrenaline transporter (Homo sapiens, UniProt P23975)
[8] = target: Growth hormone secretagogue receptor type 1 (Homo sapiens, UniProt Q92847)
[9] = target: Kappa-type opioid receptor (Homo sapiens, UniProt P41145)
[10] = target: T5, Type-1 angiotensin II receptor (Homo sapiens, UniProt P30556)
T5 sequence (P30556 whole entry): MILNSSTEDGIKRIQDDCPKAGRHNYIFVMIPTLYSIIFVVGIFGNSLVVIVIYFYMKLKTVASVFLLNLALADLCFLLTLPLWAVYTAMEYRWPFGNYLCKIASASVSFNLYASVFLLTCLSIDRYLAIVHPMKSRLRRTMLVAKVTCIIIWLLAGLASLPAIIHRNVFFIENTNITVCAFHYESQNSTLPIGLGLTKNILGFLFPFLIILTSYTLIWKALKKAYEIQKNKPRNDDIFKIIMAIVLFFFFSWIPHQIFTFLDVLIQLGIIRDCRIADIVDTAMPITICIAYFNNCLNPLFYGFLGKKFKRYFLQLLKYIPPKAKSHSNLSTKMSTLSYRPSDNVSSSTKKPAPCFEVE

[11] = target: T6, Alpha-2B adrenergic receptor (Homo sapiens, UniProt P18089)
T6 sequence (P18089 whole entry): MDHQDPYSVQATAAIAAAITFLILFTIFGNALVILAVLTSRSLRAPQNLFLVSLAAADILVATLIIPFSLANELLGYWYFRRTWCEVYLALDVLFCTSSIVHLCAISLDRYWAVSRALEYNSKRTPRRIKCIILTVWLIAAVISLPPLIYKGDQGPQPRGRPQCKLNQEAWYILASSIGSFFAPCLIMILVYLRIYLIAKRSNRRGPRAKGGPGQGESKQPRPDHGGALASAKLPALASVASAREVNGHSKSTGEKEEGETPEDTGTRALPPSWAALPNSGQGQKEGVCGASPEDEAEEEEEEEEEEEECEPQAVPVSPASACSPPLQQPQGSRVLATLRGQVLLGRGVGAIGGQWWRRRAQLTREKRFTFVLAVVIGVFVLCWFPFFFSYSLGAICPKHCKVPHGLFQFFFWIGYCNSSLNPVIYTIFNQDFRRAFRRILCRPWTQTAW

Histamine H3 receptor = Histamine H3 receptor (Homo sapiens, UniProt Q9Y5N1)
[12] = target: T4, Sodium-dependent noradrenaline transporter; remark: listed apart in the source
[13] = target: Prostaglandin G/H synthase 1 (Homo sapiens, UniProt P23219); format: functional
D(3) dopamine receptor = D(3) dopamine receptor (Homo sapiens, UniProt P35462)
Mu-type opioid receptor [14] = target: T1, Mu-type opioid receptor; remark: listed apart in the source
Also: assay procedure not described here.

Sequence of Growth hormone secretagogue receptor type 1 (Q92847 whole entry): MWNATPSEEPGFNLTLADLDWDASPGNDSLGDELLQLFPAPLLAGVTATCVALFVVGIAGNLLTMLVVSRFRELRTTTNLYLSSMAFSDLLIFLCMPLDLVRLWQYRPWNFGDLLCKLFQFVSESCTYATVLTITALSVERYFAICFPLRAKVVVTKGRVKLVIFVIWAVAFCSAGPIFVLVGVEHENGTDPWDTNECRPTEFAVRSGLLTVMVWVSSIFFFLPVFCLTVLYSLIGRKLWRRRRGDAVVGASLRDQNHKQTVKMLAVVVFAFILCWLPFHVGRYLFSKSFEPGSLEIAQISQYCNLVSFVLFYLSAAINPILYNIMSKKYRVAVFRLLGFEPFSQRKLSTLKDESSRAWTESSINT
T1 sequence (P35372 whole entry): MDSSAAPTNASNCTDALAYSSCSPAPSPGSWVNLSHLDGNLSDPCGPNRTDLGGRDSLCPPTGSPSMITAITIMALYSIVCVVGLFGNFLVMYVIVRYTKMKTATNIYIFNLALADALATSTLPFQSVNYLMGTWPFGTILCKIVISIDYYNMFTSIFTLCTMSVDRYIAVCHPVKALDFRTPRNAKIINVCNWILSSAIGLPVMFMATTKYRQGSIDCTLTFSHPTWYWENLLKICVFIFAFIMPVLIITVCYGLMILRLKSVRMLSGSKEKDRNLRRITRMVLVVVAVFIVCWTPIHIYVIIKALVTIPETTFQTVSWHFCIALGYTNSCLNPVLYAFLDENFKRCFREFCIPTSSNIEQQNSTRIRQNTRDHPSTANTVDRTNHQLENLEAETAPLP
T4 sequence (P23975 whole entry): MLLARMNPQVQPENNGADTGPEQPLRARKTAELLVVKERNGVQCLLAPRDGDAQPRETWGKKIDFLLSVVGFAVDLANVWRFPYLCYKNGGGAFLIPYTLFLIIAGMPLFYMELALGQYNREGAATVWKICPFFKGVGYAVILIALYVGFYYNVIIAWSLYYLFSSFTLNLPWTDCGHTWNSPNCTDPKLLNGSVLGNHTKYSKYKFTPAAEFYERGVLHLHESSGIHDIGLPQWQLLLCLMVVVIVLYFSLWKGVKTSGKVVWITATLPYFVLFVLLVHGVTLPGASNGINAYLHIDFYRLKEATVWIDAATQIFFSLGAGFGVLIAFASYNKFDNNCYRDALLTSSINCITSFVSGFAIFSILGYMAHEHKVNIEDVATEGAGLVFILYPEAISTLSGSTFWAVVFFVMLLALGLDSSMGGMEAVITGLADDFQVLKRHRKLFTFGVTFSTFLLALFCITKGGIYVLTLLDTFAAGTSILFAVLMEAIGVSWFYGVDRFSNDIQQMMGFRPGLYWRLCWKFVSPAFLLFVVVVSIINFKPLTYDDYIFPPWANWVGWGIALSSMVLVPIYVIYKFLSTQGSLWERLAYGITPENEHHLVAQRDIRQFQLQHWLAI
Sequence of Kappa-type opioid receptor (P41145 whole entry): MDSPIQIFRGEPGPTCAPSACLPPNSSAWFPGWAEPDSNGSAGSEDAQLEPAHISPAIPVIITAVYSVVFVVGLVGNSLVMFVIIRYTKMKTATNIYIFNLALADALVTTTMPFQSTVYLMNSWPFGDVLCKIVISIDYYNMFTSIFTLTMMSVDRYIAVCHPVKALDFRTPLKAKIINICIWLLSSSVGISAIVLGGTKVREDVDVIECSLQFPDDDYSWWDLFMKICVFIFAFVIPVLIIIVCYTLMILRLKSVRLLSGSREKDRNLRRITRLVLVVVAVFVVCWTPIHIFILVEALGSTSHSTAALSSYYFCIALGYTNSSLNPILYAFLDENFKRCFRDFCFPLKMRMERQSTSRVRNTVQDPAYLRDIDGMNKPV
Sequence of Histamine H3 receptor (Q9Y5N1 whole entry): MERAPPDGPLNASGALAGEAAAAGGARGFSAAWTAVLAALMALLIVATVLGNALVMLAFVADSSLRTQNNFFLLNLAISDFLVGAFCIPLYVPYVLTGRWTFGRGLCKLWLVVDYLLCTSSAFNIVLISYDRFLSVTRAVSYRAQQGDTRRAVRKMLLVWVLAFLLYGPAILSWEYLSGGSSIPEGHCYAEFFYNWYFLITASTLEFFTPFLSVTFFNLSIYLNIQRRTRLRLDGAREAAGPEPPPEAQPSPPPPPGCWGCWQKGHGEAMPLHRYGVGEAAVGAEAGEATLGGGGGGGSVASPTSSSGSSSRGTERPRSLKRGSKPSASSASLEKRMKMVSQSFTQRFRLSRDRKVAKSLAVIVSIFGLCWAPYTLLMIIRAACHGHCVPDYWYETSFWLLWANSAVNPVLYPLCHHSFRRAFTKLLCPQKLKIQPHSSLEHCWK
Sequence of Delta-type opioid receptor (P41143 whole entry): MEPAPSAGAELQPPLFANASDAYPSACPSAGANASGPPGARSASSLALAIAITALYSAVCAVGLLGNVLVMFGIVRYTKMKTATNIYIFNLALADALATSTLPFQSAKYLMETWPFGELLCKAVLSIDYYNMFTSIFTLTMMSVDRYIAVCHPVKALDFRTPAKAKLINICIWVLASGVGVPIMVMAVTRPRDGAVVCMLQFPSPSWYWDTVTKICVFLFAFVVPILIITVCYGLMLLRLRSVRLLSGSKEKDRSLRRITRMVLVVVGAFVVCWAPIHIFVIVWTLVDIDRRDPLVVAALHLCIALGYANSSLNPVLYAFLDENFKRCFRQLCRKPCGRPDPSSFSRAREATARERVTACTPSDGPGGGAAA
Sequence of Prostaglandin G/H synthase 1 (P23219 whole entry): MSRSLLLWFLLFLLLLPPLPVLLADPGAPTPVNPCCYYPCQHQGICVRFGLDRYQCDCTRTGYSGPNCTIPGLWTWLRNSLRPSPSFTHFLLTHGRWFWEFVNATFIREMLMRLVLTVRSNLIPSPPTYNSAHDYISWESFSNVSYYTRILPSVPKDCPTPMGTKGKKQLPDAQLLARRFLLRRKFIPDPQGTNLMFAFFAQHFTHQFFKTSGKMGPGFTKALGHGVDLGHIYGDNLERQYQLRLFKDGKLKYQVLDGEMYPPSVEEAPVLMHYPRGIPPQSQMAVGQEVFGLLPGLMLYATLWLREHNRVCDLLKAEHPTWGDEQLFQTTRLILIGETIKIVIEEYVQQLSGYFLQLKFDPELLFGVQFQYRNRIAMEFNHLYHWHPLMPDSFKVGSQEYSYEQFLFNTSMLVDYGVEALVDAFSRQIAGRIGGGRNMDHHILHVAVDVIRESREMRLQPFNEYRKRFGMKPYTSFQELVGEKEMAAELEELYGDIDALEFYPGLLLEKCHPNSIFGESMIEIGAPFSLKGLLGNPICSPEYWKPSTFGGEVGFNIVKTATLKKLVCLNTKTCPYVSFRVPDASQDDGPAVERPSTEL
Sequence of D(3) dopamine receptor (P35462 whole entry): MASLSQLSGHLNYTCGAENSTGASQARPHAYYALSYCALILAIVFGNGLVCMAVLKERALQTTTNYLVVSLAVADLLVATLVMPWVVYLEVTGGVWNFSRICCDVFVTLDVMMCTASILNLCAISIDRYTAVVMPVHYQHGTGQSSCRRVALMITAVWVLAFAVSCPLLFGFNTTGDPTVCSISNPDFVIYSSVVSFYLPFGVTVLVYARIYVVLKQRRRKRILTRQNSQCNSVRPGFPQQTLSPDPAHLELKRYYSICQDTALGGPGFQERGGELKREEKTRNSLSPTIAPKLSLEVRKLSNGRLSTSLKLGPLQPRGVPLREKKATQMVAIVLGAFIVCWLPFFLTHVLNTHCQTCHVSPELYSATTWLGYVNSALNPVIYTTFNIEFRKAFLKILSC

Row | AC50 (Mu-type opioid receptor [1]) [µM] | AC50 [2] [µM] | AC50 [3] [µM] | AC50 [4] [µM] | AC50 [5] [µM] | AC50 (Mu-type opioid receptor [6]) [µM] | AC50 [7] [µM] | AC50 [8] [µM] | AC50 [9] [µM] | AC50 [10] [µM] | AC50 (Histamine H3 receptor) [µM] | Structure (SMILES) | AC50 [11] [µM] | AC50 [12] [µM] | AC50 [13] [µM] | AC50 (D(3) dopamine receptor) [µM] | AC50 (Mu-type opioid receptor [14]) [µM]
1 | > 30 | > 30 | > 10 | > 30 | > 10 | > 30 | > 10 | > 10 | > 10 | > 10 | – | CCC[C@@H]1C[C@@H](C(=O)N[C@@H]([C@H]2O[C@H](SC)[C@H](O)[C@@H](O)[C@H]2O)[C@@H](C)O)N(C)C1 [LINCOMYCIN] | – | – | – | – | –
2 | > 30 | > 30 | > 10 | – | > 30 | – | > 10 | > 30 | > 10 | > 10 | – | C=C1c2cccc(O)c2C(=O)C2=C(O)[C@]3(O)C(=O)C(C(N)=O)=C(O)[C@@H](N(C)C)[C@@H]3[C@@H](O)[C@H]12 [METHACYCLINE] | > 10 | – | – | – | –
3 | > 30 | > 30 | > 10 | > 30 | > 30 | – | > 30 | > 30 | > 10 | > 30 | > 10 | CN(Cc1cnc2nc(N)nc(N)c2n1)c1ccc(C(=O)N[C@@H](CCC(=O)O)C(=O)O)cc1 [METHOTREXATE] | – | – | – | – | –
4 | > 30 | > 30 | > 10 | – | > 10 | > 30 | > 10 | > 10 | > 10 | > 10 | – | Cc1ccccc1N1C(=O)c2cc(S(N)(=O)=O)c(Cl)cc2NC1C (centres undefined) [METOLAZONE] | – | – | – | – | –
5 | > 30 | > 30 | > 10 | – | > 10 | > 30 | > 10 | > 10 | > 10 | > 10 | – | O=C(O)c1cccnc1Nc1cccc(C(F)(F)F)c1 [NIFLUMIC ACID] | – | – | – | – | –
6 | > 30 | > 30 | > 10 | > 30 | > 10 | – | > 10 | > 10 | > 10 | > 10 | > 10 | O=C1c2ccccc2C(=O)C1c1ccccc1 [PHENINDIONE] | – | – | – | – | –

Row | Structure (SMILES) | AC50 (Mu-type opioid receptor [1]) [µM] | AC50 [2] [µM] | AC50 [3] [µM] | AC50 [4] [µM] | AC50 [5] [µM] | AC50 (Mu-type opioid receptor [6]) [µM] | AC50 [7] [µM] | AC50 [8] [µM] | AC50 [9] [µM] | AC50 [10] [µM] | AC50 (Histamine H3 receptor) [µM] | AC50 [11] [µM] | AC50 [12] [µM] | AC50 [13] [µM] | AC50 (D(3) dopamine receptor) [µM] | AC50 (Mu-type opioid receptor [14]) [µM]
7 | CC(C)c1cccc(C(C)C)c1O [PROPOFOL] | > 30 | > 30 | – | > 30 | > 30 | – | > 30 | > 30 | – | > 30 | > 30 | – | – | – | – | –
8 | COC(=O)[C@H]1[C@H]2C[C@@H]3c4[nH]c5cc(OC)ccc5c4CCN3C[C@H]2C[C@@H](OC(=O)c2cc(OC)c(OC)c(OC)c2)[C@@H]1OC [RESERPINE] | > 30 | > 30 | > 10 | – | > 10 | > 30 | > 30 | > 10 | 11.7 | > 10 | – | – | 13.6 | > 30 | > 30 | 3.77
9 | O=S1(=O)CCN(CN2CCS(=O)(=O)NC2)CN1 [TAUROLIDINE] | – | > 30 | > 30 | > 30 | – | > 30 | > 30 | – | > 30 | – | – | 20 | > 30 | > 30 | > 30 | > 30
